Experiment [1] relates to Waterhemp. Briefly: Test C postemergence: waterhemp. In kind it is in vivo. Put shortly:
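Pot-grown plants in peat/vermiculite medium sprayed postemergence at 2–18 cm height (1- to 4-leaf stage). Kept in greenhouse 13 to 15 days, then visually rated against untreated controls on a 0–100 scale (0 = no effect, 100 = complete control).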

The subject of another experiment is Barnyardgrass. Briefly: Test C preemergence: barnyardgrass. In kind it is in vivo, Echinochloa crus-galli.
The test system of experiment [2] is lambsquarters (Chenopodium album). Briefly: Test F pre-/postemergence: lambsquarters. In kind it is in vivo. Particulars: Preemergence. Put shortly: (§1)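 Visual response scores, 0 meaning no effect and 100 complete control, were assigned against untreated controls 14 to 21 days after treatment. Test chemicals in a surfactant-containing non-phytotoxic solvent were applied preemergence to seeded silt loam soil or postemergence to 2–18 cm plants in peat-based medium.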

Experiment [3] deals with barnyardgrass (Echinochloa crus-galli). As to the kind of experiment: Test F pre-/postemergence: barnyardgrass. In kind it is in vivo. Put shortly:
as §1

Experiment [4] concerns Waterhemp. Briefly: Test C preemergence: waterhemp. Particulars: 125 g ai/ha, scale 0 to 100, 0 no effect, 100 complete control. In kind it is in vivo, Amaranthus rudis.
The mark [5] stands for this setting: 31 g ai/ha, scale 0 to 100 (0 no effect, 100 complete control).

The results in this text go back to patent publication US9302999B2, “Substituted triazoles as herbicides” (E. I. DU PONT DE NEMOURS AND COMPANY, priority 2012, dated 2016).

Turning to `Cc1nn(-c2ccc(C(F)(F)F)c(F)c2)nc1Cc1ccnc(C(F)(F)F)c1` [Compound 162], the “Plant response rating, Waterhemp” value was 98 with Waterhemp [1] (setting [5]); 100 in the experiment with Waterhemp [1] (62 g ai/ha, scale 0 to 100 (0 no effect, 100 complete control)); 100 with Waterhemp [1] (250 g ai/ha, scale 0 to 100); 100 in the experiment with Waterhemp [4]. Besides, the “Plant response rating, Barnyardgrass” value in the experiment on Barnyardgrass (31 g ai/ha, scale of 0 to 100, 0 is no effect, 100 is complete control) worked out at 98; with Barnyardgrass (62 g ai/ha, scale of 0 to 100, 0 is no effect, 100 is complete control), 100; in the experiment on Barnyardgrass (125 g ai/ha, scale 0 to 100, 0 no effect, 100 complete control), 100; in experiment [3] (Postemergence, 4 g ai/ha, scale 0 to 100), 10; in experiment [3] (Postemergence, 8 g ai/ha, scale 0 to 100), 10; in experiment [3] (Postemergence, 16 g ai/ha, scale 0 to 100), 10. The “Plant response rating, Barnyardgrass” value in experiment [3] (Postemergence, 31 g ai/ha, scale 0 to 100) came to 25; in experiment [3] (Postemergence, 62 g ai/ha, scale 0 to 100), 35; in experiment [3] (Preemergence, 4 g ai/ha, scale 0 to 100, 0 no effect, 100 complete control), 0; in experiment [3] (Preemergence, 8 g ai/ha, scale 0 to 100, 0 no effect, 100 complete control) it was 20; in experiment [3] (Preemergence, 16 g ai/ha, scale 0 to 100 (0 no effect, 100 complete control)) it was 20; in experiment [3] (Preemergence, 31 g ai/ha, scale 0 to 100 (0 no effect, 100 complete control)) it was 30. The “Plant response rating, Barnyardgrass” value in experiment [3] (Preemergence, 62 g ai/ha, scale 0 to 100) is 30. Besides, the “Plant response rating, Lambsquarters” value stood at 0 in experiment [2] (4 g ai/ha, scale 0 to 100, 0 no effect, 100 complete control); 0 in experiment [2] (8 g ai/ha, scale 0 to 100, 0 no effect, 100 complete control); 98 in experiment [2] (16 g ai/ha, scale 0 to 100 (0 no effect, 100 complete control)); 98 in experiment [2] (setting [5]); 98 in experiment [2] (62 g ai/ha, scale 0 to 100).
